Assay results from patent publication US12496361B2, “Imaging compounds for detecting or imaging senescent cells” (University of Dundee, priority 2023, dated 2025).

Columns and labels:
HBEC CDC6 Tet-ON cells [1] = assay: Detection of senescent cells in cell cultures by fluorescent microscopy; format: cell-based
Procedure: (§1) 1-Ethyl-2-((E)-2-((E)-3-((E)-2-(1-ethyl-3,3-dimethylindolin-2-ylidene)ethylidene)-2-((4-(4-((2-methyl-6-((E)-(4-((E)-phenyldiazenyl)naphthalen-1-yl)diazenyl)-2,3-dihydro-1H-perimidin-2-yl)methoxy)-4-oxobutanamido)butyl)amino)cyclohex-1-en-1-yl)vinyl)-3,3-dimethyl-3H-indol-1-ium iodide (15, Scheme 2, Example 2) was used to detect senescent cells in cell spreads using fluorescent microscopy (FIG. 1).
(§2) Li-Fraumeni-p21^WAF1/Cip1 or HBEC-CDC6 Tet-ON cellular systems were grown on cover slips and collected before and after the mentioned respective treatments for induction of senescence. Cover slips were treated as follows: • a) Cell spreads, immobilized preferably on a microscopy coverslip, are fixed in 4% paraformaldehyde (PFA) for 10 minutes at 4° C.; • b) Wash with PBS; • c) Cell membrane permeabilization: Immerse coverslips in solution of 0.3% Triton-X 100 diluted in PBS for 15 minutes; • d) Wash with PBS; • e) Apply compound of formula I on cells for 10 minutes in dark conditions; • f) Wash 3 times with fresh wash buffer [PBS/DMSO (2.5%)/TWEEN-20 (2.5%)]; • g) Incubate cells with 0.3% Triton-X 100 diluted in PBS for 3 minutes; • h) Wash with PBS; • i) Apply DAPI 1/5000 for 5 minutes in dark condition; • j) Rinse samples with dH2O for 30 seconds; • k) Cover section using a mounting medium for immunofluorescence.

[2] = system: Li-Fraumeni-p21^WAF1/Cip1 Tet-ON cells; assay: as above; format: cell-based
Procedure: as §1, §2

[3] = system: senescent cells in human tissue sections (irradiated laryngeal, chemotherapy-treated breast, aged liver); assay: Detection of senescent cells in tissue sections by fluorescent microscopy, human clinical settings; details: chemotherapy-treated breast tissues, liver specimens from aged individuals versus respective controls, FFPE sections
From the text: (§3) 1-Ethyl-2-((E)-2-((E)-3-((E)-2-(1-ethyl-3,3-dimethylindolin-2-ylidene)ethylidene)-2-((4-(4-((2-methyl-6-((E)-(4-((E)-phenyldiazenyl)naphthalen-1-yl)diazenyl)-2,3-dihydro-1H-perimidin-2-yl)methoxy)-4-oxobutanamido)butyl)amino)cyclohex-1-en-1-yl)vinyl)-3,3-dimethyl-3H-indol-1-ium iodide (15, Scheme 2, Example 2) was used to detect senescent cells in tissue sections by fluorescent microscopy.
(§4) Tissue sections were obtained from paraffin embedded, formalin fixed of: (A) irradiated human laryngeal tumors, (B) chemotherapy-treated breast tissues, (C) liver specimens from aged versus young individuals, (D) K-ras^V12 induced lung adenomas, (E) Palbociclib-treated human melanoma xenografts, and (F) Bleomycin-induced lung fibrosis mouse model, with established presence of senescent cells. Subsequently, they were immobilized on glass microscopy slides by standard procedures and processed as follows: • i. Section deparaffinization through a 30 minutes incubation at 60° C., followed by washing in xylene for 15 minutes at room temperature. • ii. Gradual rehydration of biopsy material, usually fixed tissues, in solutions of descending concentration of ethanol (100%, 96%, 80%, 70%, 50% v/v) for 5 minutes each step and finally in Phosphate-buffered saline (PBS) buffering solution; • iii. Antigen retrieval by heating in citrate acid solution 10 mM, pH=6. […]

[4] = system: senescent cells in tissue sections of murine models (K-ras^V12-induced lung adenomas, palbociclib-treated human melanoma xenografts, bleomycin-induced lung …); assay: Detection of senescent cells in tissue sections by fluorescent microscopy, murine models; details: bleomycin-treated lungs
From the text: as §3, §4

HBEC CDC6 Tet-ON cells [5] = assay: Detection by flow cytometry of senescent cells in cell culture; format: cell-based; details: with or without Doxycycline; anti-Ki67-Pacific blue only (HBEC cells do not express p16^INK4A)
Procedure: (§5) 1-Ethyl-2-((E)-2-((E)-3-((E)-2-(1-ethyl-3,3-dimethylindolin-2-ylidene)ethylidene)-2-((4-(4-((2-methyl-6-((E)-(4-((E)-phenyldiazenyl)naphthalen-1-yl)diazenyl)-2,3-dihydro-1H-perimidin-2-yl)methoxy)-4-oxobutanamido)butyl)amino)cyclohex-1-en-1-yl)vinyl)-3,3-dimethyl-3H-indol-1-ium iodide (15, Scheme 2, Example 2) was used to detect senescent cultured cells by flow cytometry.
(§6) Li-Fraumeni-p21^WAF1/Cip1 or HBEC-CDC6 Tet-ON cellular systems were grown in culture without or with Doxycyclin to induce senescence. Subsequently cells were treated and assessed as follows: • 1. Harvest cells from culture. • 2. Centrifuge at 1200 rpm for 5 min at RT. • 3. Wash ×1 in 5 ml PBS at RT. • 4. Resuspend cell pellet in 4% PFA and incubate them for 15 min in RT (fixation) • 5. Centrifuge at 1200 rpm for 5 min at RT. • 6. Resuspend cell pellet in 0.3% Triton-X/PBS and incubate it for 15 min at RT. • 7. Wash ×1 in 2 ml PBS at RT • 8. Centrifuge at 1200 rpm for 5 min at RT. • 9. Incubate samples with 100 μl of GLF16 for 8 min under gently shaking in dark condition • 10. Add 2 ml of wash buffer [PBS/DMSO (2.5%)/TWEEN-20 (2.5%)] and centrifuge at 1200 rpm for 5 min at RT (×2) • 11. Incubate with primary-conjugated antibody/ies for 20 min RT • 12. Centrifuge at 1200 rpm for 5 min at RT (×2) • 13. Apply flow cytometry buffer (PBS/5% FBS)

[6] = system: Li-Fraumeni-p21^WAF1/Cip1 Tet-ON cells; assay: as above; format: cell-based; details: with or without Doxycycline; anti-Ki67-Pacific blue and anti-p16^INK4A-APC; 3 independent experiments
Procedure: as §5, §6

## CCN1/C(=C/C=C2\CCCC(/C=C/C3=[N+](CC)c4ccccc4C3(C)C)=C2NCCCCNC(=O)CCC(=O)OCC2(C)Nc3cccc4c(/N=N/c5ccc(/N=N/c6ccccc6)c6ccccc56)ccc(c34)N2)C(C)(C)c2ccccc21 (stereo not shown) [GLF16, 1-ethyl-2-((E)-2-((E)-3-((E)-2-(1-ethyl-3,3-dimethylindolin-2-ylidene)ethylidene)-2-((4-(4-((2-methyl-6-((E)-(4-((E)-phenyldiazenyl)naphthalen-1-yl)diazenyl)-2,3-dihydro-1H-perimidin-2-yl)methoxy)-4-oxobutanamido)butyl)amino)cyclohex-1-en-1-yl)vinyl)-3,3-dimethyl-3H-indol-1-ium iodide]
HBEC CDC6 Tet-ON cells [1]; (+) Doxycycline, FIG. 2 panels F, G
  specificity: co-staining with p21^WAF1/Cip and Ki67: concordant staining presence of the senescence associated factors
HBEC CDC6 Tet-ON cells [1]; FIG. 2 panel E, (-) Doxycycline as negative control
  staining of senescent cells: successful application
[2]; (+) Doxycycline, FIG. 2 panels B, C
  specificity: co-staining with p16^INK4A and Ki67: concordant staining presence of the senescence associated factors
[2]; FIG. 2C
  co-staining with the proliferative marker Ki67: inverse relationship between GLF16 and Ki67 positivity
[2]; cells treated or not with Doxycycline for 6-8 days, fixed, permeabilized, confocal microscope
  GLF16 staining signal: intense cytoplasmic signal (corresponding to lipofuscin aggregates) abundant in senescent cells and entirely absent in untreated ones
[3]
  GLF16-positive cells in tissue: abundant in GLF16-positive cells while in respective controls these positive cells were totally absent
[4]; FIG. 3 G-I, tissue per panel not stated except H
  concurrent staining with Ki67, p21^WAF1/Cip1 and p16^INK4A: coincided with p16^INKA4 or p21^WAF1/Cip1 but not with Ki67
[4]; FIG. 3H
  GLF16 (lipofuscin) positive macrophages: positive macrophages in bleomycin-treated lungs are also evident
HBEC CDC6 Tet-ON cells [5]
  co-detection of GLF16 with senescence markers in gated GLF16 (+) and (-) cells: co-detection of GLF16 and senescence markers (p16^INK4A and absence of Ki67) in the senescent population (induced cells)
[6]
  co-detection of GLF16 with senescence markers in gated GLF16 (+) and (-) cells: co-detection of GLF16 and senescence markers (p16^INK4A and absence of Ki67) in the senescent population (induced cells)
